Assay [1] deals with AchE. Conditions: read-out: previously reported IC50, cited from earlier work.
Assay [2] deals with T1, acetylcholinesterase (AchE) (Electrophorus electricus, UniProt O42275).
T1 construct: purchased Sigma (St. Louis, Mo.) Type VI-S (catalogue number not given)
Briefly: biochemical. The assay is classed as biochemical. Conditions: for IC50: 10 inhibitor concentrations, 20 min at room temperature, choline formation, sigmoidal dose-response fit; for AchE inhibition in screen (choline production): compound tested at 100 μM, triplicate, peak area ratio of choline to internal standard.

Setting [3] is: literature values, experimental conditions not identical.

Like-named read-outs stand apart in the source and are kept apart here.

Here are results for six compounds from patent US8431888B2, “Electrospray and nanospray ionization of discrete samples in droplet format” (priority 2009, dated 2013).

The term IC50 denotes the midpoint of a concentration-inhibition curve. For `CNC(=O)Oc1ccc2c(c1)[C@]1(C)CCN(C)[C@@H]1N2C` [eserine], the IC50 in assay [1] (setting [3]) is […].

T1 sequence (O42275 24-633): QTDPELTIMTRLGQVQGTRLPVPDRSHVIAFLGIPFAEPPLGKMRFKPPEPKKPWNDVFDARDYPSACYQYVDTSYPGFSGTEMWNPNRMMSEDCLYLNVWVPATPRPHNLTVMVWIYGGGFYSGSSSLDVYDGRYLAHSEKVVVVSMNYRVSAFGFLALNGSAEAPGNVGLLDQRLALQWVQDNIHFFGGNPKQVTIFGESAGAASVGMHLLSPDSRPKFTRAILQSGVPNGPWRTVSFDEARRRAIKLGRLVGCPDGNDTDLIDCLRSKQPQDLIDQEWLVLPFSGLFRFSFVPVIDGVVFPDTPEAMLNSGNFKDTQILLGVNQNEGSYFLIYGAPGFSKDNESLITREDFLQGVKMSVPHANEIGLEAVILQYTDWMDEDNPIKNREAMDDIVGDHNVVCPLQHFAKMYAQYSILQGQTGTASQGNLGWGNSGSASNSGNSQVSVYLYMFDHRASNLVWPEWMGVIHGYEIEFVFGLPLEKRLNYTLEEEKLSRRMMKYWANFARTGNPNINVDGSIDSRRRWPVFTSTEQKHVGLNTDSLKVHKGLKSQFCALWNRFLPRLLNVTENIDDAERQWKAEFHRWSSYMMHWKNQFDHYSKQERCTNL

Turning to `CN(C)C(=O)Oc1cccc([N+](C)(C)C)c1` [neostigmine], the IC50 in assay [1] was 0.0113 µM.

As to `CCOC(=O)CC(SP(=S)(OC)OC)C(=O)OCC` (centres unmarked) [malathion], the IC50 is 480 ± 70 µM in assay [2] and 370 µM in assay [1] (setting [3]).

With `C[S+](C)[O-]` [DMSO], the “AchE inhibition in screen (choline production)” value in assay [2] is given as “some inhibition”.

For `CC[N+](C)(C)c1cccc(O)c1` [edrophonium], the results for the IC50 in assay [2] and in assay [1] were 63 ± 11 µM and 5.4 µM, respectively.

For `CC(C)NCC(O)c1ccc(O)c(O)c1` (centres unmarked) [isoproterenol], in assay [2], the “AchE inhibition in screen (choline production)” value is “some inhibition”.
